Measurements published in patent US20140322315A1, “CYSTEAMINE AND/OR CYSTAMINE FOR TREATING ISCHEMIC INJURY” (The Regents of the University of California, priority 2011, published 2014).

Biological target: T1, adiponectin multimers (Homo sapiens, UniProt Q15848)
T1 construct: from tissue; host or cells: human serum (pretreatment NAFLD subjects; adults without NAFLD)
T1 sequence (Q15848 19-244): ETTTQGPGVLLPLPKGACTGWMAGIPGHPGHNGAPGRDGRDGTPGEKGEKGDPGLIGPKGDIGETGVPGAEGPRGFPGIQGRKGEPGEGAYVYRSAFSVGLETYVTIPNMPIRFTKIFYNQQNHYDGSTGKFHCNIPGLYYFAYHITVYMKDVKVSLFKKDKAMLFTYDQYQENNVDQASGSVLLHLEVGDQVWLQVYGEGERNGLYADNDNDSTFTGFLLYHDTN
Assay: Dose response profile: NAFLD serum incubated with varying cysteamine concentrations, adiponectin multimers
Type: biochemical
Settings: 1 hour at 37° C.
Method: Total and multimeric adiponectin levels were measured in serum taken from: (1) subject with NAFLD collected at 0 and 24 wks of cysteamine therapy and again 16 wks after stopping therapy (i.e., 40 weeks); (2) pretreated 0-week subjects with NAFLD and adults without NAFLD at room temperature and at 37° C. and also after incubation with cysteamine 90 μM for 1 hour at 37° C.; and (3) pretreated 0-week subjects with NAFLD before and after incubation with cysteamine at varying concentrations (15, 30, 45, 60, 90, 120 μM) for 1 hour at 37° C. to establish dose-response profile.
Sodium dodecyl sulfate polyacrylamide gel electrophoresis (SDS-PAGE) was performed according to standard Laemmli's method. Sample buffer for non-reducing, non-heat denaturing conditions contained 3% SDS; 50 mmol/1 Tris-HCL, pH 6.8 and 20% glycerol. Proteins were separated using 3-8% Tris-Acetate Gels (Invitrogen, Carlsbad Calif.) with Tris-Acetate running buffer per manufacturer instructions. For immunoblotting, proteins were transferred to nitrocellulose membranes. Membranes were washed with Tween (Tris-buffered Saline, 0.1% […]) and incubated with monoclonal antibody (1:500 BD Transduction Laboratories, San Diego, Calif.). After washing with Tris-buffered saline with 0.1% Tween (4×5 min) membranes were incubated with L-COR secondary antibodies (LI-COR Biotechnology, Lincoln Nebr.) at 1:20,000. Adiponectin multimers were detected and quantified using the LICOR imager and software analysis program. Relative distribution of adiponectin multimers was determined by dividing band density by total density (cellular adiponectin) or by total adiponectin as determined by ELISA (Millipore, Billerica, Mass.). The percentage of adionectin multimer was then multiplied by the total adiponectin level to calculate absolute oligomer value.

- HMW level vs baseline (120 μM cysteamine): reductions
- MMW level vs baseline (120 μM cysteamine): reductions
- greatest percent increase in LMW (120 μM cysteamine): 77%
- MMW levels vs baseline (all cysteamine concentrations (15-120 μM)): lower than baseline
- mean LMW level increase above baseline (all cysteamine concentrations used (15-120 μM)): > 60%
- HMW level increase above baseline (cysteamine 15, 30, 45, and 60 μM): about 10%
Structure (SMILES): NCCS [cysteamine, Cysteamine]
